Series [1] in a line: Dissolution testing of tablet formulations A and B (USP apparatus II with paddles, 50 rpm, 900 ml 0.1N HCl). Particulars: USP apparatus II paddles 50 rpm, typical range for both formulations. Type of series: physicochemical. The method, then:
Tablet formulations A and B prepared as above are subjected to dissolution testing for both levodopa and carbidopa (USP apparatus II with paddles, 50 rpm, dissolution medium 900 ml 0.1N HCl) over a 12 hour period.

For series [2] the following is noted: approximately; background statement; cited from earlier work.

Consider two compounds from patent US20080139655A1, “SUSTAINED-RELEASE COMPOSITION AND METHOD OF USE THEREOF” (DrugTech Corporation, priority 2006, published 2008).

The term half-life denotes how long it takes for the measured level to halve.

With `C[C@@](Cc1ccc(O)c(O)c1)(NN)C(=O)O` [carbidopa], the “% Dissolved” value is given as 15-25% in series [1] (time 1 h); 25-40% in series [1] (time 2 h); 40-70% in series [1] (time 4 h); 65-80% in series [1] (time 8 h); 80-95% in series [1] (time 12 h).

As for `N[C@@H](Cc1ccc(O)c(O)c1)C(=O)O` [levodopa, 3,4-dihydroxy-L-phenylalanine], the half-life in series [2] is 45 to 90 min. For the same compound, the “% Dissolved” value in series [1] (time 1 h) is recorded as 15-25%; in series [1] (time 2 h) it was 25-40%; in series [1] (time 4 h), 40-70%; in series [1] (time 8 h) it was 65-80%; in series [1] (time 12 h), 80-95%.
